Measurements published in patent publication US5256690A, “Method for treating and controlling the symptoms of neurodegenerative disease and neuropsychopharmacological disorders” (Carter-Wallace, Inc., priority 1992, dated 1993).

Tests used:
[1] = molecular target: T1, strychnine-insensitive glycine receptors (Rattus norvegicus, UniProt P35439); conditions: value used in the K calculation; read-out: dissociation constant KD of [3H]5,7DCKA; cited from earlier work
T1 construct: Brains are immediately removed and forebrains dissected; from tissue; host or cells: rat forebrain membranes (P2/P3 pellet, washed, frozen), male Sprague-Dawley

hippocampal slices = assay: Hippocampal slice hypoxia model (evoked potential recovery); format: cell-based, rat; conditions: for evoked potential (population spike) recovery: after one hour recovery
Protocol: Sprague-Dawley rats are briefly anesthetized with Halothane and then decapitated. The brain is removed and the hippocampus dissected. Transverse hippocampal brain slices of 475 microns are sectioned with a McIlwain tissue chopper. Slices are then incubated in a temperature controlled chamber of 34 degrees centigrade while being perfused with an artificial cerebral spinal fluid (NaCl 126 mM; KCl, 4; KH2 PO4, 1.4; MgSO4, 1.3; CaCl2, 2.4; NaHCO3, 26 and glucose, 4) saturated with 95% O2 and 5% CO2.
After an initial one hour equilibration period, the slices are tested for electrophysiological function. Electrical stimulation is given in the region of the CA3 collaterals with a bipolar twisted wire electrode. Evoked responses are recorded extracellularly in the pyramidal cell layer of the CA1 region. Stimulation is given for a duration of 40 microseconds in square wave pulses. The peak-to-peak amplitude of the resultant evoked potential response is then monitored.
Hippocampal slices from one animal are placed in two chambers. One chamber is used as a control and receives standard artificial cerebral spinal fluid (ACSF) while the second receives felbamate. In each chamber, one slice is stimulated every 30 seconds to monitor evoked potential response. Other slices in the chamber are not continuously stimulated. In these latter slices, designated as non-stimulated, the evoked potential response is assessed only at the beginning and end of the experiment. Only slices with initial evoked potentials of 3 mV or greater amplitude are included for testing.
The experimental chamber is perfused with oxygenated artificial cerebral spinal fluid (ACSF) containing felbamate for 30 minutes before the initiation of hypoxic conditions. The control chamber continues to receive oxygenated ACSF without felbamate during this period. Hypoxic conditions are then initiated simultaneously in both chambers by changing to perfusing media saturated with 95% N2 and 5% CO2. The experimental chamber receives nitrogenated ACSF with felbamate while the control chamber receives nitrogenated ACSF without felbamate.
The duration of hypoxic exposure for both chambers is determined by the disappearance of the hypoxic injury potential (HIP) in the control stimulated slice. This potential appears during hypoxia after the disappearance of the original evoked potential. Although hippocampal slices can vary in their temporal response to hypoxia, the HIP is a reliable marker of permanent hypoxic injury. For this reason, the disappearance of the HIP is chosen to determine length of hypoxic exposure. Hypoxia is continued in both chambers for 5 minutes beyond the disappearance of the HIP in the stimulated control slice.
After hypoxic exposure, slices are monitored through one hour of recovery with oxygenated ACSF. The felbamate chamber receives oxygenated ACSF with felbamate for the first 15 minutes of this recovery and then standard oxygenated ACSF for the remaining 45 minutes of recovery. After a one-hour recovery period, the percentage of evoked potential amplitude recovery is assessed in both stimulated and non-stimulated slices. This percentage is calculated as the evoked potential amplitude after recovery divided by the evoked potential amplitude prior to hypoxic exposure.
This protective action is assessed by several measures. First, evoked potential recovery is assessed in both stimulated and non-stimulated slices. Additionally, hypoxic protection is calculated for both stimulated and non-stimulated slices. This measure is calculated as the damage seen in control slices minus the damage seen in experimental (felbamate) slices divided by the damage seen in control slices. For these purposes damage is defined as 100 percent minus percent recovery. The determination of hypoxic protection helps take into account any survival seen in control slices. Lastly, counts of total surviving slices were made. […]

metrazol = conditions: rats; cited from earlier work
[2] = molecular target: T1, strychnine-insensitive glycine receptors; assay: biochemical; format: binding
Protocol: Male Sprague-Dawley rats weighing 150-200 g are housed under a 12-hour light/dark cycle with access to food and water ad libitum. Animals are anesthetized with CO2 and sacrificed by decapitation. Brains are immediately removed and forebrains dissected, weighed and placed in 10 volumes (original wet weight volume) of 5 mM Hepes/4.5 mM Tris buffer (HTS; pH 7.8) containing 0.32 M sucrose. Tissue preparation is performed at about 4° C unless otherwise stated. Tissues are homogenized using a Brinkmann Polytron (setting 6, 30 seconds), diluted to 50 volumes in HTS-sucrose, and centrifuged at 1,000 xg for 10 minutes. The resultant pellet (P1) is discarded and supernatant centrifuged at 20,000 xg for 20 minutes. The resultant pellet (P2) is resuspended in HTS and centrifuged at 8,000 xg for 20 minutes. The supernatant and outer buffy coat (remaining pellet core discarded) is centrifuged at 20,000 xg for 20 minutes. The resultant pellet (P2/P3) is resuspended in HTS containing 1 mM EDTA and centrifuged at 20,000 xg for 20 minutes. The P2/P3 pellet is resuspended in HTS and the "washing" procedure is repeated two more times. The P2/P3 pellet is then resuspended in 5 volumes of HTS, frozen on dry-ice and stored at -80° C. for at least 72 hours prior to binding assay.
At the time of the assay, the appropriate amount of tissue is thawed and resuspended in 50 mM Hepes-KOH buffer (pH 8.0 at 4° C.) and "washed" twice by resuspension and centrifugation at 20,000 xg for 20 minutes. The binding of [^3 H]5,7DCKA is performed as described by Baron et al. Env. J. Pharmacol 206: 149-154 (1991). Assays are performed at 4° C. using quadruplicate samples in a total volume/tube of 1-ml consisting of: 500 ul membrane suspension (200-300 ug protein/assay tube) in 50 mM Hepes-KOH buffer (pH 8.0 at 4° C.), 100 ul [^3 H]5,7DCKA solution (19-21 nM; specific activity 18.2 Ci/mmol), 100 ul drug or buffer, and 300 ul buffer. […] Felbamate, solutions of 10 mM and 100 mM, are dissolved in 40-50% and 100% DMSO, respectively, and serial dilutions are performed. Binding reactions are initiated by adding the tissue homogenate and terminated after a 15 minute incubation period by rapid filtration through Brandel GF/B filters using a Brandel M-24 cell harvester. This filtration is followed by two 5-ml rinses with ice-cold buffer. Radioactivity is monitored in a Beckman LS 5801 liquid scintillation counter.
Displacement curves and IC50 values were analyzed using Graphpad (ISI Software, Philadelphia, Pa.).

[3] = Preclinical margin of safety (protective index); format: in vivo; conditions: preclinical profile
MES = conditions: rats; cited from earlier work

O=C(O)c1cc(O)c2c(Cl)cc(Cl)cc2n1 [[^3 H]5,7DCKA, [^3 H]5,7-dichlorokynurenic acid]
Kd [1]: 0.069 µM

NC(=O)OCC(COC(N)=O)c1ccccc1 [felbamate, 2-phenyl-1,3-propanediol dicarbamate]
neuroprotection against hypoxia (hippocampal slices; 380 uM, 840 uM, 1,300 uM and 1,700 uM): Significant neuroprotection | counts of surviving stimulated slices (hippocampal slices; 1,300 and 1,700 uM, survival criterion 3 mV): substantial felbamate protection | toxicity for electrophysiological function (hippocampal slices; high concentration of felbamate): no evidence of toxicity | toxicity (permanent evoked potential loss) (hippocampal slices; pre-hypoxic incubation, felbamate perfusion): no evidence of toxicity | evoked potential (population spike) recovery (hippocampal slices; stimulated slices, 4 uM): 2% | evoked potential (population spike) recovery (hippocampal slices; stimulated slices, 190 uM): 6% | evoked potential (population spike) recovery (hippocampal slices; stimulated slices, 380 uM): 13% | evoked potential (population spike) recovery (hippocampal slices; stimulated slices, 840 uM): 46% | evoked potential (population spike) recovery (hippocampal slices; stimulated slices, 1,300 uM): 95% | delay of appearance of the hypoxic injury potential (HIP) (hippocampal slices; stimulated slices, 1,700 uM): 14.5 min | evoked potential (population spike) recovery (hippocampal slices; stimulated slices, 1,700 uM): 96% | effect on disappearance of the evoked potential (hippocampal slices; stimulated slices, 1,700 uM, hypoxia): did not affect | counts of surviving non-stimulated slices (hippocampal slices; survival criterion 3 mV): substantial protection | anticonvulsant ED50 for metrazol (metrazol): 238 mg/kg | IC50 ([2]; IC50, inhibition of [3H]5,7DCKA, 10 uM-10 mM, combined data of three experiments on a single graph, FIG. 2): 374 µM | IC50 ([2]; IC50 value (mean +/- SEM), mean of the felbamate displacement experiments): 477 ± 49 µM | Ki ([2]; K estimate for inhibition of [3H]5,7DCKA (mean +/- SEM), calculated, mean of experiments, FIG. 2): 368 ± 37 µM | Ki ([2]; K estimate for inhibition of [3H]5,7DCKA, calculated from IC50 of combined data): 289 µM | Hill slope ([2]; combined displacement data, FIG. 2): -0.93 | mode of inhibition of [3H]5,7DCKA binding ([2]; rat forebrain membranes, FIG. 2): competitively inhibits | protective index [3]: 16.9-19.1 | anticonvulsant ED50 for MES (MES): 46 mg/kg
